According to US20180363057A1, “METHOD FOR EVALUATING INDIVIDUAL RADIOSENSITIVITY AND THE RISK OF ADVERSE EFFECTS” (COMMISSARIAT A L'ENERGIE ATOMIQUE ET AUX ENERGIES …, priority 2015, published 2018):

B1: rh-sTRAIL: recombinant human soluble TRAIL, from R&D Systems (protein, UniProt P50591 39-281, looked up)
extracellular domain: TNELKQMQDKYSKSGIACFLKEDDSYWDPNDEESMNSPCWQVKWQLRQLVRKMILRTSEETISTVQEKQQNISPLVRERGPQRVAAHITGTRGRSNTLSSPNSKNEKALGRKINSWESSRSGHSFLSNLHLRNGELVIHEKGFYYIYSQTYFRFQEEIKENTKNDKQMVQYIYKYTSYPDPILLMKSARNSCWSKDAEYGLYSIYQGGIFELKENDRIFVSVTNEHLIDMDHEASFFGAFLVG
modifications: extracellular domain
notes: recombinant human soluble TRAIL, from R&D Systems

How the values were obtained:
Assay type in all cases: cell-based, human
[1] = tested on: mTRAIL; assay: Cell-surface mTRAIL (CD253) level by flow cytometry on T4EM lymphocytes; details: 80 μg/ml
Excerpt: TRAIL can be soluble (sTRAIL) or membrane-bound (mTRAIL)(Schneider et al., 1998, J. Exp. Med. 187:1205-1213; Wajant et al., 2001, Oncogene. 20:4101-4106). Under the experimental conditions used for radiation-induced apoptosis of T4EM lymphocytes, the levels of sTRAIL in media were below sandwich ELISA detection level (<20 pg/ml; data not shown). The inventors thus focused their study on mTRAIL. Using a monoclonal antibody panel comprising CD253, they measured the level of cell-surface mTRAIL expression by flow cytometry. A four-fold higher expression of mTRAIL was found on T4EM lymphocytes of “sensitive” compared to “resistant” samples (FIG. 3 A). […]
(§1) Treated cells were collected and washed with AnnexinV buffer (140mM NaCl, 5mM CaCl2, 10 mM HEPES; ph7.4), and stained with 2.5 μl AnnexinV-FITC in combination with fluorochrome-conjugated CD markers in 100 ul for 30 min. […] For CD253 (mTRAIL) quantification, a compact panel designed to limit the need for compensation including AnnexinV, CD253, CD3, CD4, and CD62L was used.
Cells were washed in AnnexinV-buffer and just prior flow cytometry, 50 μL of AnnexinV-buffer containing 0.2 μg/mL Hoechst 33258 (Molecular Probes, Eugene, Oreg.), was added for dead cell exclusion. Samples were analyzed using a three-laser CyAn LX system, (DakoCytomation, Fort Collins, Colo.) or a 5-laser SORP LSRII (Becton Dickinson). […]

[2] = tested on: T4EM lymphocytes; assay: 1,10-phenanthroline induced apoptosis of T4EM lymphocytes (AnnexinV); details: for Effect on 1,10-phenanthroline induced apoptosis of T4EM lymphocytes: 80 μg/ml 1,10-phenanthroline, 2 hours, 4 μg/ml rh-sTRAIL or rh-sDR5
Method: Cell suspensions at approximately 5×10^5 cells/ml (or at cell densities specified in the results section) in RPM11640/15% FCS, were irradiated at a dose rate of approximately 0.5 Gy/min with a ^137Cs-source (IBL637; Cis-Bio international/Scherring, Saclay, France), where incubated in the presence of indicated concentrations of recombinant human soluble TRAIL (rh-sTRAlL), recombinant human soluble DR5 (rh-sDR5), anti-TRAIL cytotoxicity-blocking antibody (CD253; clone RIK-2), or of 1,10-phenanthroline (stock solution of 200 mM in DMSO). All experiments described were performed with the same batch of heat inactivated FCS, previously tested for compatibility with our experimental procedures. Incubations of 18 hours or less as specified in results section were at 37° C. and 5% CO2.
as §1
Cells were washed in AnnexinV-buffer and just prior flow cytometry, 50 μL of AnnexinV-buffer containing 0.2 μg/mL Hoechst 33258 (Molecular Probes, Eugene, Oreg.), was added for dead cell exclusion. Samples were analyzed using a three-laser CyAn LX system, (DakoCytomation, Fort Collins, Colo.) or a 5-laser SORP LSRII (Becton Dickinson). […] All fluorescence signals were log-amplified, and stored in listmode. CompBeads (Becton Dickinson) were used to assist in determination of spill-over in every individual experiment (CD3-FITC was used instead of AnnexinV-FITC) and Fluorescence Minus One (FMO) controls were used where needed, in particular for mTRAIL quantifications (SortWare; Becton Dickinson or Flowjo version 9.6.4; Treestar, Ashland, Oreg.). […]
Data was analyzed using Flowio. […] Subsequently, dead cells were excluded on the basis of HO33258 fluorescence. T Lymphocytes were identified on the basis of positive PETxR (CD3) fluorescence. […]

[3] = tested on: TRAIL-receptor DR5; assay: Expression of proapoptotic TRAIL-receptor DR5 in T4EM lymphocytes; details: after 1,10-phenanthroline treatment; data not shown
Excerpt: All fluorochrome-coupled monoclonal antibodies were used at saturating conditions, as determined by titrations. Anti-human CD antibodies came from Becton Dickinson ImmunoCytometry Systems (CD62L-PE, CD62L-PECy5.1, CD14-PECy5.1, CD-235a-PECy5.1, CD27-PECy5.1, CD4-PECy7, CD19-PECy7, CD45RA-APC, CD8-APCH7), from Beckman Coulter (CD3-PETxR) from Biolegend (CD253/TRAIL-PE, CD62L- BV421, CD3-BV605), or from R&D Systems (CD262/DR5-APC). Recombinant human soluble TRAIL (rh-sTRAIL) and recombinant human soluble DR5 ([…] was from R&D Systems, AnnexinV-FITC from Becton Dickinson, and 1,10-phenanthroline from Sigma-Aldrich.

[4] = tested on: T4EM lymphocytes; assay: Radiation-induced apoptosis of T4EM lymphocytes (AnnexinV labeling, flow cytometry); details: 0.4 μg/ml rh-sTRAIL, 18 hours after irradiation at 0, 0.5, 1, 2 Gy
Excerpt: The sensitivity of subpopulations of human T-lymphocytes to ionizing radiation-induced apoptosis was quantified eighteen hours after irradiation (0-2 Gy) of PBMC samples of healthy blood donors using the previously defined radio sensitivity assay based on immunophenotyping and AnnexinV-labeling. […] Exponential regression coefficients of dose-survival curves were used to classify human PBMC samples according to the radio sensitivity of their T4EM lymphocyte subpopulation, and “sensitive” and “resistant” samples were defined at the two ends of the T4EM radio sensitivity phenotype distribution. […]
as §1
Cells were washed in AnnexinV-buffer and just prior flow cytometry, 50 μL of AnnexinV-buffer containing 0.2 μg/mL Hoechst 33258 (Molecular Probes, Eugene, Oreg.), was added for dead cell exclusion. Samples were analyzed using a three-laser CyAn LX system, (DakoCytomation, Fort Collins, Colo.) or a 5-laser SORP LSRII (Becton Dickinson). […] All fluorescence signals were log-amplified, and stored in listmode. […]

Expression of proapoptotic TRAIL-receptor DR5 [3] | Molecule | mTRAIL level in treated "resistant" samples versus untreated "sensitive" samples ([1]; 2 hours) | mTRAIL expression in T4EM lymphocytes ([1]; two hours after addition, "resistant" and "sensitive" samples) | Induction of apoptosis in T4EM lymphocytes ([2]; 80 μg/ml, two hours, no irradiation) | Effect on 1,10-phenanthroline induced apoptosis of T4EM lymphocytes [2] | Effect on autocrine pro-apoptotic mode of action of mTRAIL in irradiated T4EM lymphocytes [4]
increased expression | c1cnc2c(c1)ccc1cccnc12 [1,10-phenanthroline] | always remained lower | increase of mTRAIL expression | rapid induction of apoptosis | – | –
– | rh-sDR5: recombinant human soluble DR5 receptor | – | – | – | inhibited | –
– | B1 | – | – | – | inhibited | abolished
